Assay results: US20110150817A1, “FRESHENING COMPOSITIONS COMPRISING MALODOR BINDING POLYMERS AND MALODOR CONTROL COMPONENTS” (priority 2009, published 2011)
Read-outs that look alike come from different tables or passages of the source.

Assays:
[1] = Effect of volatile aldehydes on amine-based malodor (headspace GC/MS); details: 1 μL aldehyde in 10 mL headspace vial
Protocol: A 1 μL sample of each volatile aldehyde listed in Table 6 and each Accord (A, B, and C) listed in Tables 1 to 3 is pipeted into individual 10 mL silanized headspace vials. […] Repeat 4 times for each sample (2 for butylamine analysis and 2 for butanethiol analysis).
For amine analysis, the samples are injected immediately into the system after the malodor is introduced.

[2] = Effect of volatile aldehydes on sulfur-based malodor (headspace GC/MS); details: 30 minutes at room temperature, 1 μL aldehyde in 10 mL headspace vial
Protocol: A 1 μL sample of each volatile aldehyde listed in Table 6 and each Accord (A, B, and C) listed in Tables 1 to 3 is pipeted into individual 10 mL silanized headspace vials. […] Repeat 4 times for each sample (2 for butylamine analysis and 2 for butanethiol analysis). […]

Vapor pressure at 25° C. = format: physicochemical
Protocol: Suitable acid catalysts have a VP, as reported by Scifinder, in the range of about 0.001 torr to about 38 torr, measured at 25° C., alternatively about 0.001 torr to about 14 torr, alternatively from about 0.001 to about 1, alternatively from about 0.001 to about 0.020, alternatively about 0.005 to about 0.020, alternatively about 0.010 to about 0.020.

[3] = acid catalysts, as reported by Scifinder; cited from earlier work

Compound: CC(C)(C)c1ccc(C=O)cc1 [4-tertbutyl benzylaldehyde]
- At least 20% butylamine reduction at 40 seconds? [1]: Yes
- At least 20% butanethiol reduction at 30 minutes? [2]: No

Compound: CCCCCC(C=O)=Cc1ccccc1 [Amyl cinnamic aldehyde, alpha-Amylcinnamic aldehyde]
- At least 20% butylamine reduction at 40 seconds? [1]: No
- At least 20% butanethiol reduction at 30 minutes? [2]: No

Compound: CCCCCCCCCCC=O [Undecyl aldehyde]
- At least 20% butylamine reduction at 40 seconds? [1]: Yes
- At least 20% butanethiol reduction at 30 minutes? [2]: No

Compound: COc1ccccc1C=O [o-anisaldehyde]
- At least 20% butylamine reduction at 40 seconds? [1]: Yes
- VP (torr) @25° C. (Vapor pressure at 25° C.; Table 1, materials of Accord A): 0.032 torr
- VP (torr) @25° C. (Vapor pressure at 25° C.; Table 2, materials of Accord B): 0.032 torr
- VP (torr) @25° C. (Vapor pressure at 25° C.; Table 3, materials of Accord C): 0.320 torr
- At least 20% butanethiol reduction at 30 minutes? [2]: Yes

Compound: CC(CC=O)CCCC(C)(C)O (centres unmarked) [Hydroxycitronellal, 7-hydroxy-3,7-dimethyl octan-1-al]
- At least 20% butylamine reduction at 40 seconds? [1]: No
- At least 20% butanethiol reduction at 30 minutes? [2]: No

Compound: CC(C)=CCCC(C)C=O (centres unmarked) [Melonal, 2,6-Dimethyl-5-Heptenal]
- At least 20% butylamine reduction at 40 seconds? [1]: Yes
- VP (torr) @25° C. (Vapor pressure at 25° C.; Table 2, materials of Accord B): 0.670 torr
- VP (torr) @25° C. (Vapor pressure at 25° C.; Table 3, materials of Accord C): 0.670 torr
- At least 20% butanethiol reduction at 30 minutes? [2]: No

Compound: C=CCCCCCCCCC=O [Intreleven Aldehyde, undec-10-en-1-al]
- VP (torr) @25° C. (Vapor pressure at 25° C.; Table 1, materials of Accord A): 0.060 torr
- VP (torr) @25° C. (Vapor pressure at 25° C.; Table 2, materials of Accord B): 0.060 torr
- VP (torr) @25° C. (Vapor pressure at 25° C.; Table 3, materials of Accord C): 0.060 torr

Compound: O=Cc1ccccc1 [Benzylaldehyde]
- At least 20% butylamine reduction at 40 seconds? [1]: Yes
- At least 20% butanethiol reduction at 30 minutes? [2]: No

Compound: CC(C)(O)CCCC1=CCC(C=O)CC1 (centres unmarked) [Lyral, 4-(4-hydroxy-4-methylpentyl)-3-cyclohexene-1-carboxaldehyde]
- At least 20% butylamine reduction at 40 seconds? [1]: Yes
- At least 20% butanethiol reduction at 30 minutes? [2]: No

Compound: CCOc1ccccc1C=O [2-ethoxy benzylaldehyde]
- At least 20% butylamine reduction at 40 seconds? [1]: Yes
- At least 20% butanethiol reduction at 30 minutes? [2]: Yes

Compound: CCCC/C=C/C=C/C=O [Trans Trans 2,4-Nonadienal]
- At least 20% butylamine reduction at 40 seconds? [1]: Yes
- At least 20% butanethiol reduction at 30 minutes? [2]: No

Compound: CC(C=O)Cc1ccc(C(C)C)cc1 (stereo not drawn) [Cymal, Alpha-methyl-p-isopropyl phenyl propyl aldehyde]
- At least 20% butylamine reduction at 40 seconds? [1]: Yes
- VP (torr) @25° C. (Vapor pressure at 25° C.; Table 1, materials of Accord A): 0.007 torr
- VP (torr) @25° C. (Vapor pressure at 25° C.; Table 2, materials of Accord B): 0.007 torr
- VP (torr) @25° C. (Vapor pressure at 25° C.; Table 3, materials of Accord C): 0.007 torr
- At least 20% butanethiol reduction at 30 minutes? [2]: No

Compound: CC1=CC(C)C(C=O)CC1 (centres unmarked) [Ligustral, 2,4-dimethyl-3-cyclohexene-1-carboxaldehyde]
- At least 20% butylamine reduction at 40 seconds? [1]: Yes
- At least 20% butanethiol reduction at 30 minutes? [2]: No

Compound: O=C(O)CCC(=O)O [Succinic acid]
- VP (torr) @25° C. [3]: 0.0165 torr

Compound: O=Cc1cccs1 [Thiophene Carboxaldehyde]
- At least 20% butylamine reduction at 40 seconds? [1]: Yes
- At least 20% butanethiol reduction at 30 minutes? [2]: No

Compound: CCCCCCCCCCCC=O [Lauric aldehyde]
- At least 20% butylamine reduction at 40 seconds? [1]: Yes
- At least 20% butanethiol reduction at 30 minutes? [2]: No

Compound: CCCCC/C=C/CCC=O [Trans-4-decenal]
- At least 20% butylamine reduction at 40 seconds? [1]: Yes
- At least 20% butanethiol reduction at 30 minutes? [2]: Yes

Compound: CC1(C)C2CC=C(CCC=O)C1C2 (centres unmarked) [Pino acetaldehyde]
- At least 20% butylamine reduction at 40 seconds? [1]: Yes
- At least 20% butanethiol reduction at 30 minutes? [2]: Yes

Compound: COc1ccc(C=O)cc1 [p-anisaldehyde, p-methoxybenzene aldehyde]
- At least 20% butylamine reduction at 40 seconds? [1]: Yes
- At least 20% butanethiol reduction at 30 minutes? [2]: No

Compound: CC(C=O)=Cc1ccco1 [2-methyl-3-(2-furyl)-propenal]
- At least 20% butylamine reduction at 40 seconds? [1]: No
- At least 20% butanethiol reduction at 30 minutes? [2]: No

Compound: CC(C)CC=C(C=O)C(C)C [2-isopropyl-5-methyl-2-hexenal]
- At least 20% butylamine reduction at 40 seconds? [1]: Yes
- At least 20% butanethiol reduction at 30 minutes? [2]: Yes

Compound: COC1CC2CC1C1CC(C=O)CC21 (centres unmarked) [Scentenal, octahydro-5-methoxy-4,7-Methano-1H-indene-2-carboxaldehyde]
- VP (torr) @25° C. (Vapor pressure at 25° C.; Table 1, materials of Accord A): 0.010 torr
- VP (torr) @25° C. (Vapor pressure at 25° C.; Table 2, materials of Accord B): 0.010 torr
- VP (torr) @25° C. (Vapor pressure at 25° C.; Table 3, materials of Accord C): 0.010 torr

Compound: Cc1ccc(C=O)o1 [5-methyl furfural]
- At least 20% butylamine reduction at 40 seconds? [1]: Yes
- At least 20% butanethiol reduction at 30 minutes? [2]: Yes

Compound: CC(C)=CCCC(C)CCOCC=O (centres unmarked) [Citronelyl Oxyacetaldehyde, Citronellyl oxyacetaldehyde]
- At least 20% butylamine reduction at 40 seconds? [1]: No
- At least 20% butanethiol reduction at 30 minutes? [2]: No

Compound: CCC(=O)OC1CC2CC1C1CC=CC21 (centres unmarked) [Frutene]
- VP (torr) @25° C. (Vapor pressure at 25° C.; Table 3, materials of Accord C): 0.020 torr

Compound: CCCCCCCCCC=O [Decyl aldehyde]
- At least 20% butylamine reduction at 40 seconds? [1]: Yes
- At least 20% butanethiol reduction at 30 minutes? [2]: No

Compound: CCc1ccc(CC(C)(C)C=O)cc1 [Floralozone, para-ethyl-alpha,alpha-dimethyl Hydrocinnamaldehyde]
- At least 20% butylamine reduction at 40 seconds? [1]: No
- VP (torr) @25° C. (Vapor pressure at 25° C.; Table 2, materials of Accord B): 0.005 torr
- VP (torr) @25° C. (Vapor pressure at 25° C.; Table 3, materials of Accord C): 0.005 torr
- At least 20% butanethiol reduction at 30 minutes? [2]: No

Compound: O=CC=Cc1ccccc1 [Cinnamic aldehyde, 3-phenyl-2-propenal]
- At least 20% butylamine reduction at 40 seconds? [1]: Yes
- At least 20% butanethiol reduction at 30 minutes? [2]: Yes

Compound: COc1cc(C=O)cc(OC)c1OC [3,4,5 Trimethoxy Benzaldehyde]
- At least 20% butylamine reduction at 40 seconds? [1]: No
- At least 20% butanethiol reduction at 30 minutes? [2]: No

Compound: CC(C=O)Cc1ccc2c(c1)OCO2 (stereo not drawn) [Helional, alpha-methyl-3,4-(methylenedioxy)-hydrocinnamaldehyde]
- At least 20% butylamine reduction at 40 seconds? [1]: Yes
- VP (torr) @25° C. (Vapor pressure at 25° C.; Table 3, materials of Accord C): 0.0005 torr
- At least 20% butanethiol reduction at 30 minutes? [2]: No

Compound: CC(C)=CCCC(C)CCCC(C)C=O (centres unmarked) [Adoxal, 2,6,10-Trimethyl-9-undecenal]
- At least 20% butylamine reduction at 40 seconds? [1]: Yes
- VP (torr) @25° C. (Vapor pressure at 25° C.; Table 2, materials of Accord B): 0.007 torr
- VP (torr) @25° C. (Vapor pressure at 25° C.; Table 3, materials of Accord C): 0.007 torr
- At least 20% butanethiol reduction at 30 minutes? [2]: No

Compound: C=CC(C)CCC=C(C)CCC=O (centres unmarked) [Floral Super]
- At least 20% butylamine reduction at 40 seconds? [1]: Yes
- VP (torr) @25° C. (Vapor pressure at 25° C.; Table 1, materials of Accord A): 0.030 torr
- VP (torr) @25° C. (Vapor pressure at 25° C.; Table 2, materials of Accord B): 0.030 torr
- VP (torr) @25° C. (Vapor pressure at 25° C.; Table 3, materials of Accord C): 0.030 torr
- At least 20% butanethiol reduction at 30 minutes? [2]: Yes

Compound: C=CC(C)(O)CCC=C(C)C (centres unmarked) [Linalool]
- VP (torr) @25° C. (Vapor pressure at 25° C.; Table 3, materials of Accord C): 0.050 torr

Compound: Cc1ccc(C=O)s1 [5-methyl-thiophene-carboxaldehyde]
- At least 20% butylamine reduction at 40 seconds? [1]: No
- At least 20% butanethiol reduction at 30 minutes? [2]: Yes

Compound: CC(C)(C)c1ccc(CCC=O)cc1 [Bourgeonal, 4-t-butylbenzenepropionaldehyde]
- At least 20% butylamine reduction at 40 seconds? [1]: No
- VP (torr) @25° C. (Vapor pressure at 25° C.; Table 3, materials of Accord C): 0.004 torr
- At least 20% butanethiol reduction at 30 minutes? [2]: Yes

Compound: COc1cc(OC)c(C=O)c(OC)c1 [2,4,6-Trimethoxy-benzylaldehyde]
- At least 20% butylamine reduction at 40 seconds? [1]: No
- At least 20% butanethiol reduction at 30 minutes? [2]: No

Compound: 3,4-Trimethoxy-benzylaldehyde
- At least 20% butylamine reduction at 40 seconds? [1]: No
- At least 20% butanethiol reduction at 30 minutes? [2]: No

Compound: CC(C=O)Cc1ccc(C(C)(C)C)cc1 (stereo not drawn) [P.T. Bucinal, 4-tert-butyl-alpha-methyl-hydrocinnamaldehyde]
- At least 20% butylamine reduction at 40 seconds? [1]: Yes
- At least 20% butanethiol reduction at 30 minutes? [2]: No

Compound: COc1cc(OC)c(OC)cc1C=O [2,4,5 Trimethoxy Benzaldehyde]
- At least 20% butylamine reduction at 40 seconds? [1]: No
- At least 20% butanethiol reduction at 30 minutes? [2]: No

Compound: CC(C)c1cccc(C(C)CC=O)c1 (centres unmarked) [Florhydral, 3-(3-Isopropyl-phenyl)-butyraldehyde]
- At least 20% butylamine reduction at 40 seconds? [1]: Yes
- VP (torr) @25° C. (Vapor pressure at 25° C.; Table 1, materials of Accord A): 0.008 torr
- VP (torr) @25° C. (Vapor pressure at 25° C.; Table 2, materials of Accord B): 0.008 torr
- VP (torr) @25° C. (Vapor pressure at 25° C.; Table 3, materials of Accord C): 0.008 torr
- At least 20% butanethiol reduction at 30 minutes? [2]: Yes

Compound: CC(=O)OC1CC2CC1C1CC=CC21 (centres unmarked) [Flor Acetate]
- VP (torr) @25° C. (Vapor pressure at 25° C.; Table 3, materials of Accord C): 0.060 torr

Compound: CCCCCCCCCC(C)C=O (centres unmarked) [Methyl Nonyl Acetaldehyde, 2-methyl-1-undecanal]
- At least 20% butylamine reduction at 40 seconds? [1]: No
- VP (torr) @25° C. (Vapor pressure at 25° C.; Table 2, materials of Accord B): 0.030 torr
- VP (torr) @25° C. (Vapor pressure at 25° C.; Table 3, materials of Accord C): 0.030 torr
- At least 20% butanethiol reduction at 30 minutes? [2]: No
